{
  "source": "patent EP0555116B1",
  "about": "“Compositions based on antiseptics and their applications” (HUTCHINSON, priority 1992, dated 1993)",
  "test_system": "Herpès virus Hominis type 1, souche Bey (HSV1)",
  "assay": "Immediate virucidal action on HSV1, plaque count on Vero cells",
  "format": "cell-based",
  "conditions": "Bardac® 0,02 %; 3 boîtes de culture; J4",
  "method": "Il s'agit d'une souche d'Herpès virus Hominis type 1, souche Bey (HSV1), elle est entretenue sur cellules fibroblastiques humaines ou sur cellules KB et a subi un nombre de passages importants, sur l'un ou l'autre type de cellules.\nOn utilise un lot viral congelé à -80°C après obtention d'un effet cytopathique ayant atteint au moins 80 % des cellules, sans une centrifugation préalable, qui aurait débarrassé l'inoculum de la majorité des débris cellulaires; en effet, il apparaît que l'infectivité du virus disparaît très rapidement lorsqu'il est extracellulaire, et, en conséquence, on est plus près de la réalité de l'infection in vivo lorsqu'on utilise un lot viral dans lequel des virions peuvent encore se trouver dans des débris cellulaires.\nCe lot a été titré, après répartition en aliquots de 0,5 ml, conservés à -80°C, sur cellules fibroblastiques humaines : • . par dilution de 10 en 10 et inoculations de 8 tubes de cultures par dilution : 10^6/ml; • . par inoculation de cultures en boîtes de Pétri (35 mm) et adjonction de sérum anti-HSV1 dans le surnageant pour neutraliser les virions qui pourraient être libérés dans le milieu liquide, permettant ainsi de compter des plages : 100 à 150 unités formant plages par boîte inoculée avec 0,5 ml d'une solution virale diluée à 10^-4. […]",
  "note": "Where “and” joins values, the source holds several entries; their conditions need not be identical. Equal entries are not always repeated.",
  "data": [
    {"smiles": "CCCCCCCCCC[N+](C)(C)CCCCCCCCCC", "note": "[Bardac®, chlorure de didécyldiméthylammonium]", "values": [
      {"measurement": "Nombre d'unités formant plage par millilitre de virus dilué à 10^-4", "result": "30/125/45 and 26/17/20"}
    ]}
  ]
}
